The term LC50 denotes the concentration that kills 50% of the test population.

For data set [1] the following is noted: well known; c2, t2 pairs compared with c1 (III/IV) and t1 (VII/VIII) pairs; cited from earlier work.
A further data set relates to Tobacco Budworm. The experiment in a line: Foliar LC50 - Tobacco Budworm. In kind it is in vivo. Particulars: for LC50: Heliothis virescens. From the text: This increase in activity is illustrated in Table II in which the test insect is the economically important tobacco budworm.
Foliar LC50 (ppm) - Tobacco Budworm

In brackets after ≈: the same amount, converted by molar mass. Read-outs that look alike come from different tables or passages of the source.

As for `CC1(C)[C@H](C=C(Cl)Cl)[C@H]1C(=O)O[C@H](C#N)c1cccc(Oc2ccccc2)c1` (relative stereo) [t2 enantiomer pair], in data set [1], the insecticidal activity result is “more insecticidally active”.
On to `CC1(C)C(C=C(Cl)Cl)C1C(=O)OC(C#N)c1cccc(Oc2ccccc2)c1` (racemic) [Example 5, (R,S)-(cyano)(3-phenoxyphenyl)methyl cis/trans-3-(2,2-dichloroethenyl)-2,2-dimethylcyclopropanecarboxylate], for which the “Foliar LC50, Average” value in the data set on Tobacco Budworm (Average of Tests 1-3) came to 9.9 ppm. The figures for the “Foliar LC50” value with Tobacco Budworm (Test 1), in the data set with Tobacco Budworm (Test 2) and in the data set on Tobacco Budworm (Test 3) were 6.5 ppm, 12.3 ppm and 11.0 ppm, respectively.
In the case of `CC1(C)[C@H](C(=O)O[C@H](C#N)c2cccc(Oc3ccccc3)c2)[C@@H]1C=C(Cl)Cl` [I, (S)-(cyano)(3-phenoxyphenyl)methyl 1R,cis-3-(2,2-dichloroethenyl)-2,2-dimethylcyclopropanecarboxylate], the insecticidal activity result in data set [1] is reported as “most insecticidally active”.
Take `CC1(C)[C@H](C(=O)O[C@H](C#N)c2cccc(Oc3ccccc3)c2)[C@@H]1C=C(Cl)Cl` (relative stereo) [c2 enantiomer pair]: the insecticidal activity result in data set [1] is recorded as “more insecticidally active”.
Consider `CC1(C)C(C=C(Cl)Cl)C1C(=O)OC(C#N)c1cccc(Oc2ccccc2)c1` (racemic) [Example 1, (R,S)-(cyano)(3-phenoxyphenyl)methyl cis/trans-3-(2,2-dichloroethenyl)-2,2-dimethylcyclopropanecarboxylate], for which the LC50 in the data set on Tobacco Budworm (Average of Tests 1-3, read-out: Foliar LC50, Average) was found to be 13.2 µg/mL (≈ 31.7 µM); in the data set on Tobacco Budworm (Test 1, read-out: Foliar LC50) it was 8.4 µg/mL (≈ 20.2 µM); with Tobacco Budworm (Test 2, read-out: Foliar LC50), 18.7 µg/mL (≈ 44.9 µM); in the data set on Tobacco Budworm (Test 3, read-out: Foliar LC50), 12.5 µg/mL (≈ 30 µM).
With `CC1(C)[C@H](C=C(Cl)Cl)[C@H]1C(=O)O[C@H](C#N)c1cccc(Oc2ccccc2)c1` [V], the insecticidal activity result in data set [1] is “most insecticidally active”.

Values taken from US5028731A, “Preparation of mixtures of cypermethrin or cyfluthrin isomers enriched in more active species” (FMC Corporation, priority 1989, dated 1991).
